In US12016906B2, “Pharmaceutical composition for anaemia” (Frimline Private Limited, priority 2018, dated 2024):

Columns and labels:
Type in all cases: in vivo, male Wistar rats (Rat Rattus)
[1] = test system: Iron deficient Diet (IDD) induced anaemia in rats; experiment: Hb level in IDD induced anaemia in rats; parameters: Hemoglobin % Change compared to Disease control: concentration or dose not given beside the values; settings: IDD rats; for Hemoglobin Pre-treatment: Day 35, before treatment; for Hemoglobin Post-treatment: Day 98, after 9 weeks of treatment p.o.; for Hemoglobin % Change compared to Disease control: Day 98
Description: (§1) Screening of pharmaceutical composition/formulation comprising combination of Lactoferrin+Guanosine Nucleotide or a pharmaceutically acceptable salt thereof with or without optional ingredients against Iron deficient Diet (IDD) induced anaemia in rats. For this study different parameters like Hb Level, Hematocrit level, Serum Iron level, Ferroportin level, Serum Ferritin level, Hepcidin level and IL-6 Level were evaluated. The following trials were carried out by taking reference from Wang Xl, Liu S, Xu H, Yan W, Effects of recombinant human lactoferrin on improving the iron status of IDA. Wei Sheng Yan Jiu.
(§2) 72 male Wistar rats (Rat Rattus) (6 per group) were maintained in animal house in a light/dark atmosphere based on a 12 hour cycle having temperature and relative humidity in the range of 22±3° C. and 30-70% respectively. To maintain the appropriate conditions, temperature and relative humidity were recorded three times daily. All animals were acclimatized for a minimum period of five days. Animals were maintained in the test setup for minimum 30 minutes once during the acclimatization period to reduce the stress. Animals were weighed on the day of receipt and observed daily for abnormalities if any. Detailed records of acclimatization were also maintained. Rats were housed 6 per cage in clean, sterilized Polypropylene cages. During complete experiment, animals were supplied with the standard certified rat pellet feed (manufactured by Keval sales corporation, Vadodara) and drinking water treated by the reverse osmosis ad libitum. Analysis reports for microbial load and contaminants in feed and water and nutrient content of feed were also retained.
(§3) In order to evaluate the activity against IDD induced anaemia, seventy two (72) rats were screened and divided in to twelve groups. For a comparative analysis, groups were divided as normal control (Group 1), disease control (Group 2), treatment groups with individual components (Group 3, Group 4, Group 5, Group 6 and Group 7 as Lactoferrin, Disodium Guanosine monophosphate (GMP), Guanosine diphosphate (GDP), Guanosine triphosphate (GTP) and Vitamin C respectively), test composition/formulation of the present invention (Group 8 as combination of Lactoferrin Disodium GMP, Group 9 as combination of Lactoferrin GDP, Group 10 as combination of Lactoferrin+GTP, […] as combination of Lactoferrin+Disodium GMP+Vitamin C) and reference standard drug (Group 12). Table 1 provides the details of the various groups and treatments conducted in the trial wherein group no. G3 to G12 are treatment groups.
After 3 weeks of respective dietary intervention, the level of Hemoglobin was determined in each animal.
(§4) After 5 weeks (35 days) of respective dietary intervention, once again hemoglobin level, HCT % level and serum iron level were analyzed and then, respective drug treatment was started with continuous administration of Iron deficient diets in all groups as mentioned above in Table 1.
(§5) After 9 weeks of respective drug treatment (total after 14 weeks from start of the study—98 days), various biochemical parameters were measured to evaluate the effect of respective individual and combination therapy on iron deficient anaemia model (G3 to G12).
(§6) • A. Clinical observations (Daily) • B. Mortality (Daily) • C. Body weight (Initially and then weekly till the end of study) • D. After 3 and 5 weeks of Iron deficient diet supplement • (i) Hematological parameters (RBC count, Hb Level, Hematocrit % MCV, MCH and MCHC). • (ii) Serum Iron Level. • E. At the end of 14 weeks of study • (i) Hematological parameters (RBC count, Hb Level, Hematocrit %, MCV, MCH and MCHC). • (ii) Biochemical parameters (Serum Iron level, Ferroportin level, Serum Ferritin level, Hepcidin level, IL-6 level).

[2] = test system: Iron deficient Diet (IDD) induced anaemia in rats; experiment: Hematocrit % level in IDD induced anaemia in rats; parameters: Hematocrit % Change compared to Disease control: concentration or dose not given beside the values; settings: IDD rats; for Hematocrit Pre-treatment: Day 35, before treatment; for Hematocrit Post-treatment: Day 98, after 9 weeks of treatment p.o.; for Hematocrit % Change compared to Disease control: Day 98
Description: as §1, with “Jiu. 2012 January; 41(1):13-7, 22 and Nora M. El-Sheikh, the Protective Effect of Soybean and Thyme on Iron Deficiency Anemia in Rats, the Egyptian Journal of Hospital Medicine (2008) Vol., 33: 510-520 as available.” for “Jiu.”
as §2, §3
(§7) Group nos. 2 to 12 animals under consideration were administered IDD (3 mg Fe/Kg of diet) for the period of 3 weeks, while group 1 animal received Normal pellet diet (35 mg Fe/Kg of diet).
(§8) After 3 weeks of respective dietary intervention, the level of Hemoglobin was determined in each animal. Looking at low increase in hemoglobin. Hematocrit % (HCT %) level and serum iron level, further dietary intervention was continued for additional two (2) weeks.
as §4, §5
(§9) • A. Clinical observations (Daily) • B. Mortality (Daily) • C. […]

[3] = test system: Iron deficient Diet (IDD) induced anaemia in rats; experiment: Serum iron level in IDD induced anaemia in rats; parameters: Serum IRON % Change compared to Disease control: concentration or dose not given beside the values; settings: IDD rats; for Serum IRON Pre-treatment: Day 35, before treatment; for Serum IRON Post-treatment: Day 98, after 9 weeks of treatment p.o.; for Serum IRON % Change compared to Disease control: Day 98
Description: as §1, with “Jiu. 2012 January; 41(1):13-7, 22 and Nora M. El-Sheikh, the Protective Effect of Soybean and Thyme on Iron Deficiency Anemia in Rats, the Egyptian Journal of Hospital Medicine (2008) Vol., 33: 510-520 as available.” for “Jiu.”
as §2, §3, §7, §8, §4, §5, §9

[4] = test system: Iron deficient Diet (IDD) induced anaemia in rats; experiment: Ferroportin level in IDD induced anaemia in rats; parameters: Ferroportin % Change compared to Disease control: concentration or dose not given beside the values; settings: IDD rats; for Ferroportin Post-treatment: Day 98, after 9 weeks of treatment p.o.; for Ferroportin % Change compared to Disease control: Day 98
Description: as §1, with “Jiu. 2012 January; 41(1):13-7, 22 and Nora M. El-Sheikh, the Protective Effect of Soybean and Thyme on Iron Deficiency Anemia in Rats, the Egyptian Journal of Hospital Medicine (2008) Vol., 33: 510-520 as available.” for “Jiu.”
as §2, §3, §7, §4, §5, §9

[5] = test system: Iron deficient Diet (IDD) induced anaemia in rats; experiment: Serum ferritin level in IDD induced anaemia in rats; parameters: Ferritin % Change compared to Disease control: concentration or dose not given beside the values; settings: IDD rats; for Ferritin Post-treatment: Day 98, after 9 weeks of treatment p.o.; for Ferritin % Change compared to Disease control: Day 98
Description: as §1, with “Jiu. 2012 January; 41(1):13-7, 22 and Nora M. El-Sheikh, the Protective Effect of Soybean and Thyme on Iron Deficiency Anemia in Rats, the Egyptian Journal of Hospital Medicine (2008) Vol., 33: 510-520 as available.” for “Jiu.”
as §2, §3, §7, §4, §5, §9

[6] = test system: Iron deficient Diet (IDD) induced anaemia in rats; experiment: Hepcidin level in IDD induced anaemia in rats; parameters: Hepcidin % Change compared to Disease control: concentration or dose not given beside the values; settings: IDD rats; for Hepcidin Post-treatment: Day 98, after 9 weeks of treatment p.o.; for Hepcidin % Change compared to Disease control: Day 98
Description: as §1, with “Jiu. 2012 January; 41(1):13-7, 22 and Nora M. El-Sheikh, the Protective Effect of Soybean and Thyme on Iron Deficiency Anemia in Rats, the Egyptian Journal of Hospital Medicine (2008) Vol., 33: 510-520 as available.” for “Jiu.”
as §2, §3, §7, §4, §5, §9

[7] = test system: Iron deficient Diet (IDD) induced anaemia in rats; experiment: IL-6 level in IDD induced anaemia in rats; settings: IDD rats; for IL-6 Post-treatment: Day 98, after 9 weeks of treatment p.o.; for IL-6 % Change compared to Disease control: Day 98
Description: as §1, §2, §3, §4, §5
as §6, with “level). Statistical Analysis: One way ANOVA followed by Tuckey's test was performed and p value<0.05 is considered to be statistically significant. […] Hematology: (after 3 Weeks and 5 Weeks of Feed Intervention and after 9 Weeks of Treatment)” for “level).”

Nc1nc2c(ncn2[C@@H]2O[C@H](COP(=O)(O)OP(=O)(O)OP(=O)(O)O)[C@@H](O)[C@H]2O)c(=O)[nH]1 [GTP, Guanosine triphosphate]
Hemoglobin Pre-treatment [1]: 8.45 g/dL | Hemoglobin Post-treatment [1]: 9.12 g/dL | Hemoglobin % Change compared to Disease control [1]: 39.9% | Hematocrit Pre-treatment [2]: 35.74% | Hematocrit Post-treatment [2]: 37.96% | Hematocrit % Change compared to Disease control [2]: 11.7% | Serum IRON Pre-treatment [3]: 3.03 ppm | Serum IRON Post-treatment [3]: 3.98 ppm | Serum IRON % Change compared to Disease control [3]: 49.2% | Ferroportin Post-treatment [4]: 3.0 ng/mL | Ferroportin % Change compared to Disease control [4]: 9.5% | Ferritin Post-treatment [5]: 698 ng/mL | Ferritin % Change compared to Disease control [5]: −5.7% | Hepcidin Post-treatment [6]: 4392 ng/mL | Hepcidin % Change compared to Disease control [6]: −0.2% | IL-6 Post-treatment [7]: 62.2 pg/mL | IL-6 % Change compared to Disease control [7]: −0.2%

Vit C
Hemoglobin Pre-treatment [1]: 8.28 g/dL | Hemoglobin Post-treatment [1]: 9.22 g/dL | Hemoglobin % Change compared to Disease control [1]: 41.5% | Hematocrit Pre-treatment [2]: 35.64% | Hematocrit Post-treatment [2]: 37.24% | Hematocrit % Change compared to Disease control [2]: 44.9% | Serum IRON Pre-treatment [3]: 2.76 ppm | Serum IRON Post-treatment [3]: 3.54 ppm | Serum IRON % Change compared to Disease control [3]: 32.7% | Ferroportin Post-treatment [4]: 3.1 ng/mL | Ferroportin % Change compared to Disease control [4]: 12.9% | Ferritin Post-treatment [5]: 689 ng/mL | Ferritin % Change compared to Disease control [5]: −6.9% | Hepcidin Post-treatment [6]: 4267 ng/mL | Hepcidin % Change compared to Disease control [6]: −3.0% | IL-6 Post-treatment [7]: 63.4 pg/mL | IL-6 % Change compared to Disease control [7]: 1.6%
